Measured values from PubChem BioAssay (NCI).
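Protocol summary: plate cells (96-well), add compound at 5 concentrations, incubate 48 h, interpolate endpoints linearly. TGI denotes the concentration required for complete inhibition of growth.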

Tests used:
Assay in all cases: NCI tumour cell line growth inhibition, 48 h
786-0 renal = test system: 786-0 renal
A498 renal = test system: A498 renal
A549 NSCLC = test system: A549 NSCLC
CAKI-1 renal = test system: CAKI-1 renal
CCRF-CEM leukemia = test system: CCRF-CEM leukemia
COLO 205 colon = test system: COLO 205 colon
DU-145 prostate = test system: DU-145 prostate
EKVX NSCLC = test system: EKVX NSCLC
HCC-2998 colon = test system: HCC-2998 colon
HCT-116 colon = test system: HCT-116 colon
HCT-15 colon = test system: HCT-15 colon
HOP-62 NSCLC = test system: HOP-62 NSCLC
HOP-92 NSCLC = test system: HOP-92 NSCLC
HT29 colon = test system: HT29 colon
IGROV1 ovarian = test system: IGROV1 ovarian
K-562 leukemia = test system: K-562 leukemia
KM12 colon = test system: KM12 colon
LOX IMVI melanoma = test system: LOX IMVI melanoma
M14 melanoma = test system: M14 melanoma
MALME-3M melanoma = test system: MALME-3M melanoma
MCF7 breast = test system: MCF7 breast
MDA-MB-231 breast = test system: MDA-MB-231 breast
MDA-MB-435 = test system: MDA-MB-435
MDA-N = test system: MDA-N
MOLT-4 leukemia = test system: MOLT-4 leukemia
NCI-H226 lung = test system: NCI-H226 lung
NCI-H23 lung = test system: NCI-H23 lung
NCI/ADR-RES ovarian = test system: NCI/ADR-RES ovarian
OVCAR-3 ovarian = test system: OVCAR-3 ovarian
OVCAR-4 ovarian = test system: OVCAR-4 ovarian
OVCAR-5 ovarian = test system: OVCAR-5 ovarian
OVCAR-8 ovarian = test system: OVCAR-8 ovarian
PC-3 prostate = test system: PC-3 prostate
RPMI-8226 leukemia = test system: RPMI-8226 leukemia
RXF 393 renal = test system: RXF 393 renal
SF-268 CNS = test system: SF-268 CNS
SF-295 CNS = test system: SF-295 CNS
SF-539 CNS = test system: SF-539 CNS
SK-MEL-2 melanoma = test system: SK-MEL-2 melanoma
SK-MEL-28 melanoma = test system: SK-MEL-28 melanoma
SK-MEL-5 melanoma = test system: SK-MEL-5 melanoma
SK-OV-3 ovarian = test system: SK-OV-3 ovarian
SN12C renal = test system: SN12C renal
SNB-75 CNS = test system: SNB-75 CNS
SR leukemia = test system: SR leukemia
SW-620 colon = test system: SW-620 colon
T-47D breast = test system: T-47D breast
TK-10 renal = test system: TK-10 renal
U251 CNS = test system: U251 CNS
UACC-257 melanoma = test system: UACC-257 melanoma
UACC-62 melanoma = test system: UACC-62 melanoma
ACHN renal = test system: ACHN renal
BT-549 breast = test system: BT-549 breast
HL-60(TB) leukemia = test system: HL-60(TB) leukemia
NCI-H460 lung = test system: NCI-H460 lung
NCI-H522 lung = test system: NCI-H522 lung
SNB-19 CNS = test system: SNB-19 CNS
UO-31 renal = test system: UO-31 renal

Q: What does the source list for `O=C1C2=Cc3ccccc3OC2(O)Oc2ccccc21` (centres undefined)?
A: TGI (786-0 renal): > 100 µM; TGI (A498 renal): > 100 µM; TGI (A549 NSCLC): > 100 µM; TGI (CAKI-1 renal): > 100 µM; TGI (CCRF-CEM leukemia): > 100 µM; TGI (COLO 205 colon): > 100 µM; TGI (DU-145 prostate): > 100 µM; TGI (EKVX NSCLC): > 100 µM; TGI (HCC-2998 colon): > 100 µM; TGI (HCT-116 colon): > 100 µM; TGI (HCT-15 colon): > 100 µM; TGI (HOP-62 NSCLC): > 100 µM; TGI (HOP-92 NSCLC): > 100 µM; TGI (HT29 colon): > 100 µM; TGI (IGROV1 ovarian): > 100 µM; TGI (K-562 leukemia): > 100 µM; TGI (KM12 colon): > 100 µM; TGI (LOX IMVI melanoma): > 100 µM; TGI (M14 melanoma): > 100 µM; TGI (MALME-3M melanoma): > 100 µM; TGI (MCF7 breast): > 100 µM; TGI (MDA-MB-231 breast): > 100 µM; TGI (MDA-MB-435): > 100 µM; TGI (MDA-N): > 100 µM; TGI (MOLT-4 leukemia): > 100 µM; TGI (NCI-H226 lung): > 100 µM; TGI (NCI-H23 lung): > 100 µM; TGI (NCI/ADR-RES ovarian): > 100 µM; TGI (OVCAR-3 ovarian): > 100 µM; TGI (OVCAR-4 ovarian): > 100 µM; TGI (OVCAR-5 ovarian): > 100 µM; TGI (OVCAR-8 ovarian): > 100 µM; TGI (PC-3 prostate): > 100 µM; TGI (RPMI-8226 leukemia): > 100 µM; TGI (RXF 393 renal): > 100 µM; TGI (SF-268 CNS): > 100 µM; TGI (SF-295 CNS): > 100 µM; TGI (SF-539 CNS): > 100 µM; TGI (SK-MEL-2 melanoma): > 100 µM; TGI (SK-MEL-28 melanoma): > 100 µM; TGI (SK-MEL-5 melanoma): > 100 µM; TGI (SK-OV-3 ovarian): > 100 µM; TGI (SN12C renal): > 100 µM; TGI (SNB-75 CNS): > 100 µM; TGI (SR leukemia): > 100 µM; TGI (SW-620 colon): > 100 µM; TGI (T-47D breast): > 100 µM; TGI (TK-10 renal): > 100 µM; TGI (U251 CNS): > 100 µM; TGI (UACC-257 melanoma): > 100 µM; TGI (UACC-62 melanoma): > 100 µM

Q: `Cc1ccc(/C=C/C(=N/NC(=O)N/N=C(/C=C/c2ccc(C)cc2)C(C)C)C(C)C)cc1` was tested. Which TGI (786-0 renal) did it give?
A: > 10 µM

Q: And the TGI (A549 NSCLC)?
A: > 10 µM

Q: What about the TGI (ACHN renal) of the same compound?
A: > 10 µM

Q: And the TGI (BT-549 breast)?
A: > 10 µM

Q: And the TGI (CAKI-1 renal)?
A: > 10 µM

Q: And the TGI (CCRF-CEM leukemia)?
A: > 10 µM

Q: What about the TGI (COLO 205 colon) of the same compound?
A: > 10 µM

Q: What about the TGI (DU-145 prostate) of the same compound?
A: > 10 µM

Q: And the TGI (EKVX NSCLC)?
A: > 10 µM

Q: What about the TGI (HCC-2998 colon) of the same compound?
A: > 10 µM

Q: And the TGI (HCT-116 colon)?
A: > 10 µM

Q: And the TGI (HCT-15 colon)?
A: > 10 µM

Q: And the TGI (HL-60(TB) leukemia)?
A: > 10 µM

Q: What about the TGI (HOP-62 NSCLC) of the same compound?
A: > 10 µM

Q: And the TGI (HOP-92 NSCLC)?
A: > 10 µM

Q: And the TGI (HT29 colon)?
A: > 10 µM

Q: What about the TGI (K-562 leukemia) of the same compound?
A: > 10 µM

Q: And the TGI (KM12 colon)?
A: > 10 µM

Q: What about the TGI (M14 melanoma) of the same compound?
A: > 10 µM

Q: And the TGI (MALME-3M melanoma)?
A: > 10 µM

Q: What about the TGI (MCF7 breast) of the same compound?
A: > 10 µM

Q: And the TGI (MDA-MB-231 breast)?
A: > 10 µM

Q: And the TGI (MDA-MB-435)?
A: > 10 µM

Q: And the TGI (MDA-N)?
A: > 10 µM

Q: And the TGI (MOLT-4 leukemia)?
A: > 10 µM

Q: And the TGI (NCI-H226 lung)?
A: > 10 µM

Q: And the TGI (NCI-H23 lung)?
A: > 10 µM

Q: And the TGI (NCI-H460 lung)?
A: > 10 µM

Q: And the TGI (NCI-H522 lung)?
A: > 10 µM

Q: What about the TGI (NCI/ADR-RES ovarian) of the same compound?
A: > 10 µM

Q: And the TGI (OVCAR-3 ovarian)?
A: > 10 µM

Q: What about the TGI (OVCAR-4 ovarian) of the same compound?
A: 2.88 µM

Q: And the TGI (OVCAR-5 ovarian)?
A: > 10 µM

Q: And the TGI (OVCAR-8 ovarian)?
A: > 10 µM

Q: And the TGI (PC-3 prostate)?
A: > 10 µM

Q: What about the TGI (RPMI-8226 leukemia) of the same compound?
A: > 10 µM

Q: And the TGI (RXF 393 renal)?
A: > 10 µM

Q: What about the TGI (SF-268 CNS) of the same compound?
A: > 10 µM

Q: And the TGI (SF-295 CNS)?
A: > 10 µM

Q: What about the TGI (SK-MEL-2 melanoma) of the same compound?
A: > 10 µM

Q: What about the TGI (SN12C renal) of the same compound?
A: > 10 µM

Q: What about the TGI (SNB-19 CNS) of the same compound?
A: > 10 µM

Q: And the TGI (SR leukemia)?
A: > 10 µM

Q: What about the TGI (SW-620 colon) of the same compound?
A: > 10 µM

Q: What about the TGI (TK-10 renal) of the same compound?
A: > 10 µM

Q: What about the TGI (U251 CNS) of the same compound?
A: > 10 µM

Q: What about the TGI (UACC-257 melanoma) of the same compound?
A: > 10 µM

Q: And the TGI (UO-31 renal)?
A: > 10 µM
